Our source for the GI50 and melting point values is patent US8394825B2, “Compound” (Sterix Limited, priority 2007, dated 2013).

The subject of one data set is DU145 cells. The experiment in a line: Antiproliferative assay in DU145 cells, WST-1 cell proliferation assay, 96 hours (GI50). It is filed as cell-based. On the procedure:
Antiproliferative assays. DU145 cells were seeded into 96 well microtiter plates (5000 cells/well) and treated with […] of compounds or with vehicle control. At 96 hours post-treatment, live cell counts were determined by WST-1 cell proliferation assay (Roche, Penzberg, Germany), as per manufacturer's instructions. Viability results were expressed as a percentage of mean control values resulting in the calculation of the 50% growth inhibition (GI50). All experiments were performed in triplicate.
(Tetrazolium assays rely on reduction of a dye to a coloured formazan, in cell work by metabolically active cells.)

The mark [1] stands for this setting: Homo sapiens, DU-145, 96 hours post-treatment, triplicate.
Where [2] appears, read: 96 hours post-treatment, 50% growth inhibition, read-out: DU-145 GI50.
Where [3] appears, read: Homo sapiens, DU-145, 96 hours post-treatment, 50% growth inhibition.

Read-outs that look alike come from different tables or passages of the source.

The term GI50 denotes the concentration at which growth is held to half of that of the control. As usually defined, the melting point is the temperature of the solid-liquid transition.

As to `COc1cc2c(cc1OCc1ccccc1)CCN(Cc1ccccc1)C2` [compound 2, 2-Benzyl-6-benzyloxy-7-methoxy-1,2,3,4-tetrahydroisoquinoline], the melting point was in the range of 97 to 98 °C. This compound also returned a 50% growth inhibitory concentration (GI50) with DU145 cells (setting [1]) of 50 to 100 µM. In turn, `COc1ccc(CN2CCc3cc(OCc4ccccc4)c(OC)cc3C2)cc1` [compound 3, 6-Benzyloxy-7-methoxy-2-(4-methoxybenzyl)-1,2,3,4-tetrahydroisoquinoline] registered a melting point of 96 to 97 °C. Also, in the data set with DU145 cells (setting [1]), the GI50 was in the range of 50 to 100 µM. In the case of `COc1cccc(CN2CCc3cc(OCc4ccccc4)c(OC)cc3C2)c1` [compound 4, 6-Benzyloxy-7-methoxy-2-(3-methoxybenzyl)-1,2,3,4-tetrahydroisoquinoline], the melting point was 71 to 72 °C. For the same compound, the concentration for 50% growth inhibition (GI50) in the data set on DU145 cells (setting [1]) was 50 to 100 µM. On to `COc1ccccc1CN1CCc2cc(OCc3ccccc3)c(OC)cc2C1` [compound 5, 6-Benzyloxy-7-methoxy-2-(2-methoxybenzyl)-1,2,3,4-tetrahydroisoquinoline], for which the melting point was 85 to 86 °C. The GI50 with DU145 cells (setting [1]) was 10 to 50 µM. Consider `COc1cc(CN2CCc3cc(OCc4ccccc4)c(OC)cc3C2)cc(OC)c1` [compound 6, 6-Benzyloxy-2-(3,5-dimethoxybenzyl)-7-methoxy-1,2,3,4-tetrahydroisoquinoline], for which the melting point is 95 to 96 °C. This compound also had a GI50 with DU145 cells (setting [1]) above 100 µM.

Take `COc1cc2c(cc1OCc1ccccc1)CCN(Cc1cccc(C)c1)C2` [compound 7, 6-Benzyloxy-7-methoxy-2-(3-methylbenzyl)-1,2,3,4-tetrahydroisoquinoline]: the melting point is 81 to 82 °C. In the data set on DU145 cells (setting [1]), this compound came in with a GI50 above 100 µM. In the case of `COc1cc2c(cc1OCc1ccccc1)CCN(Cc1cccc(Oc3ccccc3)c1)C2` [compound 8, 6-Benzyloxy-7-methoxy-2-(3-phenoxybenzyl)-1,2,3,4-tetrahydroisoquinoline], the melting point fell in the range of 111 to 112 °C. Further, the GI50 with DU145 cells (setting [1]) is above 100 µM. `COc1cc(OC)c(OC)cc1CN1CCc2cc(OCc3ccccc3)c(OC)cc2C1` [compound 17, 6-Benzyloxy-7-methoxy-2-(2,4,5-trimethoxybenzyl)-1,2,3,4-tetrahydroisoquinoline] had a melting point of 110 to 111 °C. In the data set on DU145 cells (setting [1]), the GI50 is 10 to 50 µM.

Turning to `COc1cc2c(cc1OCc1ccccc1)CCN(Cc1cc(OC)c(OC)c(OC)c1)C2` [compound 19, 6-Benzyloxy-7-methoxy-2-(3,4,5-trimethoxybenzyl)-1,2,3,4-tetrahydroisoquinoline], the melting point was in the range of 144 to 145 °C. The same compound had a GI50 in the data set with DU145 cells (setting [1]) of 10 to 50 µM.

`COc1cc2c(cc1OCc1ccccc1)CCN(Cc1cccc(OC)c1OC)C2` [compound 20, 6-Benzyloxy-7-methoxy-2-(2,3-dimethoxybenzyl)-1,2,3,4-tetrahydroisoquinoline] had a melting point of 106 to 107 °C. Besides, the GI50 with DU145 cells (setting [1]) lay within 10 to 50 µM. As to `COc1cc2c(cc1OCc1ccccc1)CCN(Cc1cccc(F)c1)C2` [compound 22, 6-Benzyloxy-2-(3-fluorobenzyl)-7-methoxy-1,2,3,4-tetrahydroisoquinoline], the melting point fell in the range of 77 to 79.5 °C. In the data set on DU145 cells (setting [1]), this compound registered a GI50 above 100 µM. In turn, `COc1cc2c(cc1OCc1ccccc1)CCN(Cc1cccc(N)c1)C2` [compound 34, 2-(3-Aminobenzyl)-6-(benzyloxy)-7-methoxy-1,2,3,4-tetrahydroisoquinoline] yielded a melting point of 114 to 115 °C. The GI50 in the data set on DU145 cells (setting [1]) was above 100 µM. For `COc1cc2c(cc1O)CCN(Cc1ccccc1)C2` [compound 38, 2-Benzyl-6-hydroxy-7-methoxy-1,2,3,4-tetrahydroisoquinoline], in that order: 134 to 135 °C and above 100 µM. For `COc1ccc(CN2CCc3cc(O)c(OC)cc3C2)cc1` [compound 39, 6-Hydroxy-7-methoxy-2-(4-methoxybenzyl)-1,2,3,4-tetrahydroisoquinoline], the melting point lay in the range of 162 to 163 °C. For the same compound, the GI50 in the data set on DU145 cells (setting [1]) is above 100 µM. `COc1cccc(CN2CCc3cc(O)c(OC)cc3C2)c1` [compound 40, 6-Hydroxy-7-methoxy-2-(3-methoxybenzyl)-1,2,3,4-tetrahydroisoquinoline] had a melting point of 161 to 162 °C. The compound further registered a GI50 with DU145 cells (setting [1]) above 100 µM. As to `COc1cc2c(cc1O)CCN(Cc1ccccc1OC)C2` [compound 41, 6-Hydroxy-7-methoxy-2-(2-methoxybenzyl)-1,2,3,4-tetrahydroisoquinoline], the melting point is 128 to 129 °C. The GI50 with DU145 cells (setting [1]) was above 100 µM. Compound `COc1cc(CN2CCc3cc(O)c(OC)cc3C2)cc(OC)c1` [compound 42, 6-Hydroxy-2-(3,5-dimethoxybenzyl)-7-methoxy-1,2,3,4-tetrahydroisoquinoline] showed a melting point of 127 to 128 °C. The concentration for 50% growth inhibition (GI50) in the data set with DU145 cells (setting [1]) fell in the range of 50 to 100 µM. Consider `COc1cc2c(cc1O)CCN(Cc1cccc(Oc3ccccc3)c1)C2` [compound 43, 6-Hydroxy-7-methoxy-2-(3-phenoxybenzyl)-1,2,3,4-tetrahydroisoquinoline], for which the melting point was 139 to 140 °C. In addition, in the data set with DU145 cells (setting [1]), the GI50 fell in the range of 10 to 50 µM.

For the compound `COc1cc2c(cc1O)CCN(Cc1cc(OC)c(OC)c(OC)c1)C2` [compound 54, 6-Hydroxy-7-methoxy-2-(3,4,5-trimethoxybenzyl)-1,2,3,4-tetrahydroisoquinoline], the melting point was in the range of 170 to 171 °C. Moreover, in the data set with DU145 cells (setting [1]), the 50% growth inhibitory concentration (GI50) was below 10 µM.

On to `COc1ccc(OC)c(CN2CCc3cc(O)c(OC)cc3C2)c1` [compound 55, 6-Hydroxy-7-methoxy-2-(2,5-dimethoxybenzyl)-1,2,3,4-tetrahydroisoquinoline], for which the melting point was in the range of 104 to 105 °C. Besides, the GI50 in the data set on DU145 cells (setting [1]) lay in the range of 50 to 100 µM. The compound `COc1cc2c(cc1O)CCN(Cc1cccc(OC)c1OC)C2` [compound 56, 6-Hydroxy-7-methoxy-2-(2,3-dimethoxybenzyl)-1,2,3,4-tetrahydroisoquinoline] showed a melting point of 101 to 102 °C. In the data set on DU145 cells (setting [1]), this compound came in with a GI50 above 100 µM.

For the compound `COc1cc2c(cc1O)CCN(Cc1ccc(OC)c(OC)c1)C2` [compound 57, 6-Hydroxy-7-methoxy-2-(3,4-dimethoxybenzyl)-1,2,3,4-tetrahydroisoquinoline], the melting point lay in the range of 146 to 147 °C. The concentration for 50% growth inhibition (GI50) with DU145 cells (setting [1]) is above 100 µM.

In the case of `COc1cc2c(cc1O)CCN(Cc1ccc(OC)c(OC)c1OC)C2` [compound 58, 6-Hydroxy-7-methoxy-2-(2,3,4-trimethoxybenzyl)-1,2,3,4-tetrahydroisoquinoline], the melting point was 65 to 66 °C. The same compound came in with a GI50 in the data set on DU145 cells (setting [1]) above 100 µM. As to `COc1cc2c(cc1O)CCN(Cc1cc(OC)c(OC)cc1OC)C2` [compound 59, 6-Hydroxy-7-methoxy-2-(2,4,5-trimethoxybenzyl)-1,2,3,4-tetrahydroisoquinoline], the melting point was in the range of 152 to 153 °C. The same compound displayed a GI50 in the data set on DU145 cells (setting [1]) below 10 µM.

`COc1cc2c(cc1O)CCN(Cc1cccc(F)c1)C2` [compound 60, 2-(3-Fluorobenzyl)-6-hydroxy-7-methoxy-1,2,3,4-tetrahydroisoquinoline] came in with a melting point of 125 to 127 °C. Besides, the GI50 with DU145 cells (setting [1]) is above 100 µM. As for `COc1ccc(S(=O)(=O)N2CCc3cc(OS(N)(=O)=O)c(OC)cc3C2)cc1` [compound 195, 7-Methoxy-2-(4-methoxy-benzenesulfonyl)-6-O-sulfamoyl-1,2,3,4-tetrahydroisoquinoline], in the data set with DU145 cells (96 hours post-treatment, triplicate, read-out: DU-145 GI50), the GI50 was above 100 µM.

As for `COc1cc2c(cc1OS(N)(=O)=O)CCN(S(=O)(=O)c1ccccc1OC)C2=O` [compound 204, 7-Methoxy-2-(2-methoxy-benzenesulfonyl)-6-O-sulfamoyl-3,4-dihydro-2H-isoquinolin-1-one], the concentration for 50% growth inhibition (GI50) in the data set on DU145 cells (setting [2]) was above 100 µM. Still for that read-out and setting: the figure for `COc1cccc(S(=O)(=O)N2CCc3cc(OS(N)(=O)=O)c(OC)cc3C2=O)c1` [compound 205, 7-Methoxy-2-(3-methoxy-benzenesulfonyl)-6-O-sulfamoyl-3,4-dihydro-2H-isoquinolin-1-one] is above 100 µM; for `COc1ccc(S(=O)(=O)N2CCc3cc(OS(N)(=O)=O)c(OC)cc3C2=O)cc1` [compound 206, 7-Methoxy-2-(4-methoxy-benzenesulfonyl)-6-O-sulfamoyl-3,4-dihydro-2H-isoquinolin-1-one] it is above 100 µM; for `COc1cc2c(cc1OS(N)(=O)=O)CCN(S(=O)(=O)c1cccc(Cl)c1)C2=O` [compound 207, 2-(3-Chloro-benzenesulfonyl)-7-methoxy-6-O-sulfamoyl-3,4-dihydro-2H-isoquinolin-1-one] it is above 100 µM. The same measure, in the same setting: in the case of `COc1cccc(CN2Cc3cc(OC)c(OS(N)(=O)=O)cc3CC2C)c1` (stereo not drawn) [compound 220, 2-(3-Methoxybenzyl)-1,2,3,4-tetrahydro-7-methoxy-3-methylisoquinolin-6-O-sulfamate] it was below 10 µM; in that of `COc1cc(CN2Cc3cc(OC)c(OS(N)(=O)=O)cc3CC2C)cc(OC)c1` (stereo not drawn) [compound 221, 2-(3,5-dimethoxy-benzyl)-7-methoxy-3-methyl-1,2,3,4-tetrahydro-isoquinolin-6-O-sulfamate], below 10 µM; in that of `COc1cc2c(cc1OS(N)(=O)=O)CC(C)N(Cc1cc(OC)c(OC)c(OC)c1)C2` (stereo not drawn) [compound 222, 2-(3,4,5-Trimethoxybenzyl)-1,2,3,4-tetrahydro-7-methoxy-3-methylisoquinolin-6-O-sulfamate], below 10 µM. `COc1cccc(CN2Cc3cc(OC)c(OS(N)(=O)=O)cc3CC2(C)C)c1` [compound 230, 2-(3-Methoxybenzyl)-1,2,3,4-tetrahydro-7-methoxy-3,3-dimethylisoquinolin-6-yl sulfamate] yielded a GI50 in the data set with DU145 cells (setting [3]) above 100 µM.

Consider `COc1cc2c(cc1OS(N)(=O)=O)CC(C)(C)N(Cc1cc(OC)c(OC)c(OC)c1)C2` [compound 231, 2-(3,4,5-Trimethoxybenzyl)-1,2,3,4-tetrahydro-7-methoxy-3,3-dimethylisoquinolin-6-yl sulfamate], for which the GI50 in the data set with DU145 cells (setting [3]) was above 100 µM.
